Reference: PubChem BioAssay AID1919000 (Molecular Pharmacology Branch, DTP, NCI, 2023)
Where “and” joins values, the source holds several entries; their conditions need not be identical. Identical values can stand only once.

System: 653999-131-R-J2-PDC complex spheroids, growth % test/control
Experiment: Anticancer human tumor 653999-131-R-J2-PDC patient-derived lung adenocarcinoma cell line growth inhibition [AhR]
Conditions: for viability, T/C: stronger effect = lower value
Summary of the method: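 Spheroids combined tumor cells with HUVEC endothelial cells and human MSCs as stroma. AhR antagonists were paired with standard or investigational drugs, each dosed in half-log steps down from near clinical Cmax, or from 10 microM where Cmax was unknown.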

[1] = curve of first compound, second compound 0.1 µM
[2] = curve of first compound, second compound 0.316 µM
[3] = curve of first compound, second compound 1 µM
[4] = curve of first compound, second compound 3.16 µM
[5] = curve of first compound, second compound 10 µM
[6] = second compound 0.1 µM, first compound 0.0316 µM
[7] = second compound 0.1 µM, first compound 0.1 µM
[8] = second compound 0.1 µM, first compound 0.316 µM
[9] = second compound 0.1 µM, first compound 1 µM
[10] = second compound 0.316 µM, first compound 0.0316 µM
[11] = second compound 0.316 µM, first compound 0.1 µM
[12] = second compound 0.316 µM, first compound 0.316 µM
[13] = second compound 0.316 µM, first compound 1 µM
[14] = second compound 1 µM, first compound 0.0316 µM
[15] = second compound 1 µM, first compound 0.1 µM
[16] = second compound 1 µM, first compound 0.316 µM
[17] = second compound 1 µM, first compound 1 µM
[18] = second compound 3.16 µM, first compound 0.0316 µM
[19] = second compound 3.16 µM, first compound 0.1 µM
[20] = second compound 3.16 µM, first compound 0.316 µM
[21] = second compound 3.16 µM, first compound 1 µM
[22] = second compound 10 µM, first compound 0.0316 µM
[23] = second compound 10 µM, first compound 0.1 µM
[24] = second compound 10 µM, first compound 0.316 µM
[25] = second compound 10 µM, first compound 1 µM
[26] = second compound 0.1 µM, first compound 3.16 µM
[27] = second compound 0.1 µM, first compound 10 µM
[28] = second compound 0.316 µM, first compound 3.16 µM
[29] = second compound 0.316 µM, first compound 10 µM
[30] = second compound 1 µM, first compound 3.16 µM
[31] = second compound 1 µM, first compound 10 µM
[32] = second compound 3.16 µM, first compound 3.16 µM
[33] = second compound 3.16 µM, first compound 10 µM
[34] = second compound 10 µM, first compound 3.16 µM
[35] = second compound 10 µM, first compound 10 µM
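Also: spheroids exposed to agents for seven days.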
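For viability, T/C in this document: 100% = DMSO vehicle control viability.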

Compound | IC50 [1] | IC50 [2] | IC50 [3] | IC50 [4] | IC50 [5] | viability, T/C [6] | viability, T/C [7] | viability, T/C [8] | viability, T/C [9] | viability, T/C [10] | viability, T/C [11] | viability, T/C [12] | viability, T/C [13] | viability, T/C [14] | viability, T/C [15] | viability, T/C [16] | viability, T/C [17] | viability, T/C [18] | viability, T/C [19] | viability, T/C [20] | further results
CC1COCCN1c1cc(-c2ccnn2C)c2ccnc(-c3ccn[nH]3)c2n1 (configuration not stated) + Cc1cncc(-c2nc(NCCc3c[nH]c4ccccc34)c3ncn(C(C)C)c3n2)c1 | 123 nM | 129 nM | 170 nM | 149 nM | < 3.16 nM | 76.3% | 52.3% | 36.7% | 25.2% | 84.8% | 53.5% | 35.5% | 26.4% | 89.5% | 65.6% | 31.6% | 23.5% | 89.6% | 56.2% | 38.5% | viability, T/C (second compound 0.1 µM, first compound 0.00316 µM): 100%; viability, T/C (second compound 0.1 µM, first compound 0.01 µM): 94.6%; viability, T/C (second compound 0.316 µM, first compound 0.00316 µM): 92.8%; viability, T/C (second compound 0.316 µM, first compound 0.01 µM): 92.4%; viability, T/C (second compound 1 µM, first compound 0.00316 µM): 107%; viability, T/C (second compound 1 µM, first compound 0.01 µM): 96.3%; viability, T/C (second compound 3.16 µM, first compound 0.00316 µM): 98.2%; viability, T/C (second compound 3.16 µM, first compound 0.01 µM): 98.1%; viability, T/C [21]: 29.1%; viability, T/C (second compound 10 µM, first compound 0.00316 µM): 36.8%; viability, T/C (second compound 10 µM, first compound 0.01 µM): 46.9%; viability, T/C [22]: 38%; viability, T/C [23]: 34.6%; viability, T/C [24]: 25.7%; viability, T/C [25]: 27%
NS(=O)(=O)OCC1CC(n2ccc3c(NC4CCc5ccccc54)ncnc32)CC1O (configuration not stated) | – | – | – | – | – | – | – | – | – | – | – | – | – | – | – | – | – | – | – | – | viability, T/C (compound 0.0316 µM): 101% and 97.7% and 115%; viability, T/C (compound 0.1 µM): 98.7% and 110% and 114%; viability, T/C (compound 0.316 µM): 89.3% and 95.5% and 96%; viability, T/C (compound 1 µM): 89.8% and 104% and 105%; viability, T/C (compound 3.16 µM): 91.9% and 83.5% and 78.4%; viability, T/C (compound 10 µM): 53.4% and 61.8% and 55.4%; IC50 (curve of compound): > 10000 nM
COc1cccc2c1C(=O)c1c(O)c3c(c(O)c1C2=O)CC(O)(C(=O)CO)CC3OC1CC(N)C(O)C(C)O1 (configuration not stated) + CC(CO)NC(=O)c1cc(-c2ccc(Cl)cc2)nn(-c2cnn(C)c2)c1=O | 136 nM | 124 nM | 144 nM | 167 nM | 131 nM | 60.7% | 53% | 35% | 11.7% | 62.3% | 52.8% | 31.1% | 10.4% | 71% | 57% | 33% | 11.2% | 62.9% | 49.5% | 42.3% | viability, T/C [26]: 6.06%; viability, T/C [27]: 19.9%; viability, T/C [28]: 4.91%; viability, T/C [29]: 20.9%; viability, T/C [30]: 4.47%; viability, T/C [31]: 18.9%; viability, T/C [21]: 6.87%; viability, T/C [32]: 7.41%; viability, T/C [33]: 20.7%; viability, T/C [22]: 73.4%; viability, T/C [23]: 54.6%; viability, T/C [24]: 31.8%; viability, T/C [25]: 5.67%; viability, T/C [34]: 9.25%; viability, T/C [35]: 21.4%
O=C(C=Cc1cccc(S(=O)(=O)Nc2ccccc2)c1)NO + CC(CO)NC(=O)c1cc(-c2ccc(Cl)cc2)nn(-c2cnn(C)c2)c1=O | 3730 nM | 3660 nM | 4130 nM | 3520 nM | 3640 nM | 102% | 102% | 100% | 91.8% | 109% | 117% | 95.9% | 96.3% | 108% | 104% | 114% | 98.5% | 107% | 114% | 105% | viability, T/C [26]: 57.3%; viability, T/C [27]: 6.62%; viability, T/C [28]: 55%; viability, T/C [29]: 7.7%; viability, T/C [30]: 63.4%; viability, T/C [31]: 6.59%; viability, T/C [21]: 90.2%; viability, T/C [32]: 54.3%; viability, T/C [33]: 10.5%; viability, T/C [22]: 107%; viability, T/C [23]: 111%; viability, T/C [24]: 105%; viability, T/C [25]: 100%; viability, T/C [34]: 56.2%; viability, T/C [35]: 4.99%
NS(=O)(=O)OCC1CC(n2ccc3c(NC4CCc5ccccc54)ncnc32)CC1O (configuration not stated) + CC(CO)NC(=O)c1cc(-c2ccc(Cl)cc2)nn(-c2cnn(C)c2)c1=O | > 10000 nM | > 10000 nM | > 10000 nM | > 10000 nM | > 10000 nM | 108% | 99.8% | 109% | 98.9% | 108% | 98.7% | 101% | 80.4% | 101% | 111% | 114% | 53.8% | 101% | 102% | 99.9% | viability, T/C [26]: 63.4%; viability, T/C [27]: 51%; viability, T/C [28]: 53.1%; viability, T/C [29]: 54.5%; viability, T/C [30]: 53.4%; viability, T/C [31]: 52.3%; viability, T/C [21]: 54.5%; viability, T/C [32]: 52%; viability, T/C [33]: 58.4%; viability, T/C [22]: 97.9%; viability, T/C [23]: 96.9%; viability, T/C [24]: 93.5%; viability, T/C [25]: 54.1%; viability, T/C [34]: 51%; viability, T/C [35]: 56.9%
